Earlier results in patent US9615750B2, “Methods and compositions for carrier agents and clearing agents used in optoacoustic imaging systems” (SENO MEDICAL INSTRUMENTS, INC., priority 2012, dated 2017).

Settings: in words, solvents as named

Solubility	Molecule
Soluble in water	CN1CCCN(C)C1=O [Cyclic Urea]
Water Soluble	Keratan Sulfate
Water Soluble	Heparin [reference compound]
Water Soluble	Chondroitin Sulfate

Molecule	Solubility
Polyoxyethylene (20) sorbitan [TWEEN ® 20]	Insoluble in Mineral Oil.

Same assay, conditions: water

Solubility in water	Molecule
> 100 g/100 ml)	NC(N)=O [Urea]
soluble 4 g/100 ml	OCc1ccccc1 [Benzyl alcohol]
